Results reported in ChEMBL document CHEMBL3046635, “Synthesis and Herbicidal Activity of New Pyrazole-4-carboxamide Derivatives” (J Pestic Sci, 2004).
Calls of active or inactive are those of the source.

Tests used:
[1] = tested on: Echinochloa oryzicola; experiment: Pre-emergence herbicidal activity against Echinochloa oryzicola at 100 g a.i/ha measured after 14 days; assay type: functional, organism-based
[2] = tested on: Ammannia multiflora; experiment: Post-emergence herbicidal activity against Ammannia multiflora assessed as bleaching of stem/leaf parts; assay type: functional, organism-based; also: test concentration or dose not given here
[3] = tested on: Rotala indica; experiment: Pre-emergence herbicidal activity against Rotala indica at 500 g a.i/ha measured after 14 days; assay type: functional, organism-based
[4] = tested on: Pontederia vaginalis; experiment: Pre-emergence herbicidal activity against Monochoria vaginalis at 100 g a.i/ha measured after 14 days; assay type: functional, organism-based
[5] = tested on: Ammannia multiflora; experiment: Pre-emergence herbicidal activity against Ammannia multiflora assessed as bleaching of stem/leaf parts; assay type: functional, organism-based
[6] = tested on: Eleocharis acicularis; experiment: Pre-emergence herbicidal activity against Eleocharis acicularis at 500 g a.i/ha measured after 14 days; assay type: functional, organism-based
[7] = tested on: Echinochloa oryzicola; experiment: Post-emergence herbicidal activity against Echinochloa oryzicola assessed as bleaching of stem/leaf parts; assay type: functional, organism-based; also: test concentration or dose not given here
[8] = tested on: Ammannia multiflora; experiment: Pre-emergence herbicidal activity against Ammannia multiflora at 100 g a.i/ha measured after 14 days; assay type: functional, organism-based
[9] = tested on: Pontederia vaginalis; experiment: Post-emergence herbicidal activity against Monochoria vaginalis assessed as bleaching of stem/leaf parts; assay type: functional, organism-based; also: test concentration or dose not given here
[10] = tested on: Echinochloa oryzicola; experiment: Pre-emergence herbicidal activity against Echinochloa oryzicola assessed as bleaching of stem/leaf parts; assay type: functional, organism-based
[11] = tested on: Cyperus difformis; experiment: Post-emergence herbicidal activity against Cyperus difformis assessed as bleaching of stem/leaf parts; assay type: functional, organism-based; also: test concentration or dose not given here
[12] = tested on: Eleocharis acicularis; experiment: Pre-emergence herbicidal activity against Eleocharis acicularis at 100 g a.i/ha measured after 14 days; assay type: functional, organism-based
[13] = tested on: Pontederia vaginalis; experiment: Pre-emergence herbicidal activity against Monochoria vaginalis assessed as bleaching of stem/leaf parts; assay type: functional, organism-based
[14] = tested on: Eleocharis acicularis; experiment: Post-emergence herbicidal activity against Eleocharis acicularis assessed as bleaching of stem/leaf parts; assay type: functional, organism-based; also: test concentration or dose not given here
[15] = tested on: Rotala indica; experiment: Pre-emergence herbicidal activity against Rotala indica at 100 g a.i/ha measured after 14 days; assay type: functional, organism-based
[16] = tested on: Lindernia procumbens; experiment: Post-emergence herbicidal activity against Lindernia procumbens assessed as bleaching of stem/leaf parts; assay type: functional, organism-based; also: test concentration or dose not given here
[17] = tested on: Schoenoplectiella juncoides; experiment: Pre-emergence herbicidal activity against Schoenoplectiella juncoides assessed as bleaching of stem/leaf parts; assay type: functional, organism-based
[18] = tested on: Rotala indica; experiment: Post-emergence herbicidal activity against Rotala indica assessed as bleaching of stem/leaf parts; assay type: functional, organism-based; also: test concentration or dose not given here
[19] = tested on: Schoenoplectiella juncoides; experiment: Pre-emergence herbicidal activity against Schoenoplectiella juncoides at 500 g a.i/ha measured after 14 days; assay type: functional, organism-based
[20] = tested on: Ammannia multiflora; experiment: Pre-emergence herbicidal activity against Ammannia multiflora at 500 g a.i/ha measured after 14 days; assay type: functional, organism-based
[21] = tested on: Pontederia vaginalis; experiment: Pre-emergence herbicidal activity against Monochoria vaginalis at 500 g a.i/ha measured after 14 days; assay type: functional, organism-based
[22] = tested on: Echinochloa oryzicola; experiment: Pre-emergence herbicidal activity against Echinochloa oryzicola at 500 g a.i/ha measured after 14 days; assay type: functional, organism-based
[23] = tested on: Cyperus difformis; experiment: Pre-emergence herbicidal activity against Cyperus difformis at 100 g a.i/ha measured after 14 days; assay type: functional, organism-based
[24] = tested on: Elatine triandra; experiment: Pre-emergence herbicidal activity against Elatine triandra assessed as bleaching of stem/leaf parts; assay type: functional, organism-based
[25] = tested on: Cyperus difformis; experiment: Pre-emergence herbicidal activity against Cyperus difformis assessed as bleaching of stem/leaf parts; assay type: functional, organism-based
[26] = tested on: Elatine triandra; experiment: Pre-emergence herbicidal activity against Elatine triandra at 100 g a.i/ha measured after 14 days; assay type: functional, organism-based
[27] = tested on: Eleocharis acicularis; experiment: Pre-emergence herbicidal activity against Eleocharis acicularis assessed as bleaching of stem/leaf parts; assay type: functional, organism-based
[28] = tested on: Schoenoplectiella juncoides; experiment: Post-emergence herbicidal activity against Schoenoplectiella juncoides assessed as bleaching of stem/leaf parts; assay type: functional, organism-based; also: test concentration or dose not given here
[29] = tested on: Lindernia procumbens; experiment: Pre-emergence herbicidal activity against Lindernia procumbens at 500 g a.i/ha measured after 14 days; assay type: functional, organism-based
[30] = tested on: Rotala indica; experiment: Pre-emergence herbicidal activity against Rotala indica assessed as bleaching of stem/leaf parts; assay type: functional, organism-based
[31] = tested on: Schoenoplectiella juncoides; experiment: Pre-emergence herbicidal activity against Schoenoplectiella juncoides at 100 g a.i/ha measured after 14 days; assay type: functional, organism-based
[32] = tested on: Elatine triandra; experiment: Pre-emergence herbicidal activity against Elatine triandra at 500 g a.i/ha measured after 14 days; assay type: functional, organism-based
[33] = tested on: Lindernia procumbens; experiment: Pre-emergence herbicidal activity against Lindernia procumbens assessed as bleaching of stem/leaf parts; assay type: functional, organism-based
[34] = tested on: Oryza sativa; experiment: Phytotoxicity against Oryza sativa cv. Koshihikari (rice) at 100 g a.i/ha measured after 14 days; assay type: organism-based; conditions: in vivo, 336 h
[35] = tested on: Elatine triandra; experiment: Post-emergence herbicidal activity against Elatine triandra assessed as bleaching of stem/leaf parts; assay type: functional, organism-based; also: test concentration or dose not given here
[36] = tested on: Oryza sativa; experiment: Phytotoxicity against Oryza sativa cv. Koshihikari (rice) at 500 g a.i/ha measured after 14 days; assay type: organism-based; conditions: in vivo, 336 h
[37] = tested on: Cyperus difformis; experiment: Pre-emergence herbicidal activity against Cyperus difformis at 500 g a.i/ha measured after 14 days; assay type: functional, organism-based
[38] = tested on: Lindernia procumbens; experiment: Pre-emergence herbicidal activity against Lindernia procumbens at 100 g a.i/ha measured after 14 days; assay type: functional, organism-based

Structure (SMILES)	Activity [1]	Activity [2]	Activity [3]	Activity [4]	Activity [5]	Activity [6]	Activity [7]	Activity [8]	Activity [9]	Activity [10]	Activity [11]	Activity [12]	Activity [13]	Activity [14]	Activity [15]	Activity [16]	Activity [17]	Activity [18]	Activity [19]	Activity [20]	also measured
Cn1cc(C(=O)NOc2ccc(Cl)cc2)c(OCc2cccc(C(F)(F)F)c2)n1	inactive	Active	Active	Active	Active	Active	Active	Active	Active	Active	Active	Active	Active	Active	Active	Active	Active	Active	Active	Active	Activity [21]: Active; Activity [22]: Active; Activity [23]: Active; Activity [24]: Active; Activity [25]: Active; Activity [26]: Active; Activity [27]: Active; Activity [28]: Active; Activity [29]: Active; Activity [30]: Active; Activity [31]: Active; Activity [32]: Active; Activity [33]: Active; Activity [34]: Non-toxic; Activity [35]: Active; Activity [36]: Non-toxic; Activity [37]: Active; Activity [38]: Active
Cn1cc(C(=O)Nc2ccc(F)cc2F)c(OCc2cccc(C(F)(F)F)c2)n1	inactive	Active	Active	Active	Active	Active	Active	Active	Active	Active	Active	Active	Active	Active	Active	Active	Active	Active	Active	Active	Activity [21]: Active; Activity [22]: inactive; Activity [23]: Active; Activity [24]: Active; Activity [25]: Active; Activity [26]: Active; Activity [27]: Active; Activity [28]: Active; Activity [29]: Active; Activity [30]: Active; Activity [31]: inactive; Activity [32]: Active; Activity [33]: Active; Activity [34]: Non-toxic; Activity [35]: Active; Activity [36]: Toxic; Activity [37]: Active; Activity [38]: Active
CCONC(=O)c1cn(CC)nc1OCc1cccc(C(F)(F)F)c1	Active	Active	Active	inactive	Active	Active	Active	Active	Active	Active	Active	inactive	Active	Active	Active	Active	Active	Active	Active	Active	Activity [21]: Active; Activity [22]: Active; Activity [23]: Active; Activity [24]: Active; Activity [25]: Active; Activity [26]: Active; Activity [27]: Active; Activity [28]: Active; Activity [29]: Active; Activity [30]: Active; Activity [31]: inactive; Activity [32]: Active; Activity [33]: Active; Activity [34]: Non-toxic; Activity [35]: Active; Activity [36]: Non-toxic; Activity [37]: Active; Activity [38]: Active
CCCN(OCC)C(=O)c1cn(C)nc1OCc1cccc(C(F)(F)F)c1	Active	Active	Active	inactive	Active	Active	Active	Active	Active	Active	Active	inactive	Active	Active	Active	Active	Active	Active	inactive	Active	Activity [21]: Active; Activity [22]: Active; Activity [23]: Active; Activity [24]: Active; Activity [25]: Active; Activity [26]: Active; Activity [27]: Active; Activity [28]: Active; Activity [29]: Active; Activity [30]: Active; Activity [31]: inactive; Activity [32]: Active; Activity [33]: Active; Activity [34]: Non-toxic; Activity [35]: Active; Activity [36]: Non-toxic; Activity [37]: Active; Activity [38]: Active
